Results: US8383130B2, “Partial peptide of lacritin” (Senju Pharmaceutical Co., Ltd., priority 2008, dated 2013)

Assays:
Type in all cases: cell-based
[1] = system: human corneal epithelial cells (HCE-T); assay: Adhesion of human corneal epithelial cell to extracellular matrix (Experimental Example 1); details: polypeptide 100 μg/mL, 50 μL per well, collagen type IV coated plate, 37° C. 20 min, MTT assay, no addition of polypeptide = 100%
Description: An extracellular matrix solution (10 μg/mL, collagen type IV: Becton, Dickinson and Company) was added to a 96 well plate (Iwaki Glass Company, Limited). The solution was incubated at 37° C. for 1 hr to coat the plate with the extracellular matrix. After the redundant extracellular matrix solution was removed, 0.1% BSA solution (Sigma-Aldrich Co.) was added to block the region not coated with the extracellular matrix. Successively, the BSA solution was removed and the plate was washed twice with PBS, and polypeptides 1-5 (concentration 100 μg/mL) synthesized in Example 1 and Comparative Example 1 were added by 50 μL per well. Furthermore, established human corneal epithelial cells (HCE-T: can be prepared by the method described in Invest Ophthalmol Vis Sci. 1995, 36, 614) were cultured overnight under serum-free conditions and added to the plate at 2×10^4 cells/100 μL DMEM/F12 medium/well. The plate was incubated at 37° C. for 20 min to allow adhesion of the cells to the plate. The number of the adhered cells was counted by MTT assay (DOJINDO LABORATORIES).

[2] = system: human corneal epithelial cells (HCE-T); assay: Adhesion of human corneal epithelial cell to extracellular matrix (Experimental Example 2); details: polypeptide 10 μM in PBS, 50 μL per well, collagen type IV coated plate, 37° C. 25 min, MTT assay, no addition of polypeptide = 100%
Description: An extracellular matrix solution (10 μg/mL, collagen type IV: Becton, Dickinson and Company) was added to a 96 well plate (Iwaki Glass Company, Limited). The solution was incubated at 37° C. for 1 hr to coat the plate with the extracellular matrix. After the redundant extracellular matrix solution was removed, 0.1% BSA solution (Sigma-Aldrich Co.) was added to block the region not coated with the extracellular matrix. Successively, the BSA solution was removed and the plate was washed three times with PBS, and polypeptides 4, 6 and 7 synthesized in Example 2 and Comparative Example 1 were suspended in PBS to a final concentration of 10 μM, and the suspension was added by 50 μL per well. Furthermore, established human corneal epithelial cells (HCE-T: can be prepared by the method described in Invest Ophthalmol Vis Sci. 1995, 36, 614) were cultured overnight under serum-free conditions and added to the plate at 2×10^4 cells/100 μL DMEM/F12 medium/well. The plate was incubated at 37° C. for 25 min to allow adhesion of the cells to the well. The number of the adhered cells was counted by MTT assay (DOJINDO LABORATORIES).

[3] = system: monkey lacrimal gland acinar cells; assay: Secretion of tear protein (lactoferrin) from monkey lacrimal gland acinar cells; details: 1 μM polypeptide; for lactoferrin secretion amount (ng/10^5 cells): 37° C. 10 min, westernblot, human lactoferrin as standard
Description: Monkey lacrimal gland was chopped in a DMEM/F12 medium (Invitrogen Corporation) and treated with HBSS (Invitrogen Corporation) containing 0.76 mg/mL EDTA (Sigma-Aldrich Co.) and DMEM/F12 medium containing 200 U/mL collagenase A (Roche), 698 U/mL Hyarulonidase (Worthington Biochemical Corporation) and 10 U/mL DNase (Roche Diagnostics K.K.), and the cells were isolated. 1×10^6 cells were sown on a 6 well plate (ASAHI GLASS CO., LTD.) coated with 0.01 mg/cm^2 Collagen I (Becton, Dickinson and Company), and cultured in a CO2 incubator at 37° C. overnight. The next day, the medium was changed to a supplement-free DMEM/F12 medium and the cells were pre-incubated at 37° C. for 30 min, and then incubated in a DMEM/F12 medium containing 1 μM polypeptide 1 or 4 at 37° C. for 10 min. Lactoferrin as a tear protein secreted in the medium was detected by westernblot, and quantified using human lactoferrin (Sigma-Aldrich Co.) as the standard. The collected medium was purified by 2D clean up kit (Bio-Rad Laboratories, Inc.), dissolved in NuPAGE LDS sample buffer (Invitrogen Corporation), and thermally denatured at 70° C. for 10 min. An equivalent amount of a sample was electrophoresed in 4-12% NuPAGE Bis Tris gel in MES buffer (Invitrogen Corporation) at 200 V for 35 min, and blotted on a PVDF membrane (Nihon Millipore K.K.) at 100 V for 60 min using Trans Blot Mini Cell (Bio-Rad Laboratories, Inc.). The membrane was blocked with TTBS (Bio-Rad Laboratories, Inc.) containing 5% skim-milk (Bio-Rad Laboratories, Inc.) at room temperature for 30 min, and reacted overnight at 4° C. with lactoferrin antibody (manufactured in rabbit, Sigma-Aldrich Co.) diluted 1000-fold. After washing the membrane with TTBS, the membrane was reacted at room temperature for 60 min with secondary antibody of anti-rabbit HRP, which was diluted 5000-fold. Then detection using ECL plus (GE healthcare) was performed. In addition, the amount of the secreted lactoferrin was quantified by forming an analytical curve of human lactoferrin on the same membrane, and comparing the density of the bands.

| Sequence | cell adhesion rate (%) [1] | cell adhesion rate (%) [2] | lactoferrin secretion amount (ng/10^5 cells) [3] | promotion of secretion of lactoferrin (in words) ([3]; 10 min) |
| --- | --- | --- | --- | --- |
| EISGPAEPASPPETTTTAQETSAAAVQGTAKVT (listed as Homo sapiens) [polypeptide 4, reference compound] | 100% | 107% | 2.79 ng/10^5 cells | – |
| EISGPAEPASPPETTTTAQETSAAAVQGTAKVTSSRQELNPLKSIVEKSILLTEQALAKA (listed as Homo sapiens) [polypeptide 7] | – | 190% | – | – |
| QGTAKVTSSRQELNPL (listed as Homo sapiens) [polypeptide 5, reference compound] | 98% | – | – | – |
| QGTAKVTSSRQELNPLKSIVEKSILLTEQALAKA (listed as Homo sapiens) [polypeptide 6] | – | 160% | – | – |
| QGTAKVTSSRQELNPLKSIVEKSILLTEQALAKAGKGMHGGVPGG (listed as Homo sapiens) [polypeptide 2] | 134% | – | – | – |
| QGTAKVTSSRQELNPLKSIVEKSILLTEQALAKAGKGMHGGVPGGKQFIENGSEF (listed as Homo sapiens) [polypeptide 3] | 147% | – | – | – |
| VQGTAKVTSSRQELNPLKSIVEKSILLTEQALAKA (listed as Homo sapiens) [polypeptide 1] | 147% | – | 11.7 ng/10^5 cells | promoted the secretion of lactoferrin |
